In patent publication US20210070748A1, “INHIBITORS OF BRUTONS TYROSINE KINASE” (Pharmacyclics LLC, priority 2015, published 2021):

How the values were obtained:
Format in all cases: biochemical
SRC = SRC (Homo sapiens, UniProt P12931); experiment: Inhibition of a panel of kinases, in vitro HotSpot kinase assay: SRC; conditions: E compounds, Table 17
Protocol: (§1) The degree of inhibition of a panel of kinases is determined using the in vitro HotSpot kinase assay (purified enzymes, ^33P-ATP, an appropriate substrate and 1 μM ATP).

TEC = target: T1, TEC (Homo sapiens, UniProt P42680); experiment: Inhibition of a panel of kinases, in vitro HotSpot kinase assay: TEC; conditions: E compounds, Table 17
T1 sequence (P42680 1-631): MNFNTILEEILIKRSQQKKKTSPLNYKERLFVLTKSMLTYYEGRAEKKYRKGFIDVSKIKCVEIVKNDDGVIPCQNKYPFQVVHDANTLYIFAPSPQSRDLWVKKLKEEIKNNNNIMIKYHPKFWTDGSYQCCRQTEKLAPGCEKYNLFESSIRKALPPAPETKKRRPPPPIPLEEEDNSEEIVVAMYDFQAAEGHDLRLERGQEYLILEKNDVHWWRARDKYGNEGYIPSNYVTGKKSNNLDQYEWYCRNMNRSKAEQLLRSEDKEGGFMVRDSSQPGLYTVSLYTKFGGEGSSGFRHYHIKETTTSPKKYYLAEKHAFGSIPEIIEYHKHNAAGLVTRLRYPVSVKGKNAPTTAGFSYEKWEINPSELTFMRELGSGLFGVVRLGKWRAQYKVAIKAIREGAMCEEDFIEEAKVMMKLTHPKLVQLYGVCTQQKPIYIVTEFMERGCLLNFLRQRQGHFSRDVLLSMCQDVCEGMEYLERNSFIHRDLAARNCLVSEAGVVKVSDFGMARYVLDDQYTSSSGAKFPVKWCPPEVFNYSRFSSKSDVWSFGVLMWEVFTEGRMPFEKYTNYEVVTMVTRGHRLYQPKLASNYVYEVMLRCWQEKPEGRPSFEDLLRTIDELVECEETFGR
Protocol: as §1

LCK = LCK (Homo sapiens, UniProt P06239); experiment: Inhibition of a panel of kinases, in vitro HotSpot kinase assay: LCK; conditions: E compounds, Table 17; read-out: IC50 LCK
EGFR = EGFR (Homo sapiens, UniProt P00533); experiment: Inhibition of a panel of kinases, in vitro HotSpot kinase assay: EGFR; conditions: E compounds, Table 17
Protocol: as §1

ITK = target: T2, ITK (Homo sapiens, UniProt Q08881); experiment: Inhibition of a panel of kinases, in vitro HotSpot kinase assay: ITK; conditions: E compounds, Table 17
T2 sequence (Q08881 1-620): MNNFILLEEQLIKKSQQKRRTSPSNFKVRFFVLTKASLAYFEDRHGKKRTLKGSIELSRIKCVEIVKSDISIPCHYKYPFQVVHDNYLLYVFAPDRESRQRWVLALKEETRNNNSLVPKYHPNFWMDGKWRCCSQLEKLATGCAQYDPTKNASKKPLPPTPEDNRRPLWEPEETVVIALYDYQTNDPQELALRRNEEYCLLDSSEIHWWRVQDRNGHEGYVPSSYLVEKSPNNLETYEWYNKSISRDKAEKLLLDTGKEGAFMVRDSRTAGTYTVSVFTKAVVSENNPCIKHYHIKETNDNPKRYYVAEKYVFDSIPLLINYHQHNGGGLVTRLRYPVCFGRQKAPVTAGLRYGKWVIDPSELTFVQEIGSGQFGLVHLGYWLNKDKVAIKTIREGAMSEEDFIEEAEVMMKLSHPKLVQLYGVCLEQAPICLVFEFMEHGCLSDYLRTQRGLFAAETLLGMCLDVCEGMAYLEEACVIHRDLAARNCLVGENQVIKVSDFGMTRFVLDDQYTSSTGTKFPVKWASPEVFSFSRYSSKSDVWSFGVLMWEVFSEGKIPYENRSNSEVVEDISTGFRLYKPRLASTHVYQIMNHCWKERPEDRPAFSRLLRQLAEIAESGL
Protocol: as §1

BTK-WT = target: T3, BTK-WT (Homo sapiens, UniProt Q06187); experiment: Btk in vitro inhibitory activity (one of Method A TR-FRET, Method B electrophoretic mobility shift, Method C radiometric filter binding); conditions: E compounds, Table 17; read-out: IC50 BTK-WT
T3 construct: purified from insect cells as a full-length construct containing an N-terminal 6X-His tag; His6 (N); made in house; host or cells: insect cells (baculovirus Sf21 in Method B)
T3 sequence (Q06187 whole entry): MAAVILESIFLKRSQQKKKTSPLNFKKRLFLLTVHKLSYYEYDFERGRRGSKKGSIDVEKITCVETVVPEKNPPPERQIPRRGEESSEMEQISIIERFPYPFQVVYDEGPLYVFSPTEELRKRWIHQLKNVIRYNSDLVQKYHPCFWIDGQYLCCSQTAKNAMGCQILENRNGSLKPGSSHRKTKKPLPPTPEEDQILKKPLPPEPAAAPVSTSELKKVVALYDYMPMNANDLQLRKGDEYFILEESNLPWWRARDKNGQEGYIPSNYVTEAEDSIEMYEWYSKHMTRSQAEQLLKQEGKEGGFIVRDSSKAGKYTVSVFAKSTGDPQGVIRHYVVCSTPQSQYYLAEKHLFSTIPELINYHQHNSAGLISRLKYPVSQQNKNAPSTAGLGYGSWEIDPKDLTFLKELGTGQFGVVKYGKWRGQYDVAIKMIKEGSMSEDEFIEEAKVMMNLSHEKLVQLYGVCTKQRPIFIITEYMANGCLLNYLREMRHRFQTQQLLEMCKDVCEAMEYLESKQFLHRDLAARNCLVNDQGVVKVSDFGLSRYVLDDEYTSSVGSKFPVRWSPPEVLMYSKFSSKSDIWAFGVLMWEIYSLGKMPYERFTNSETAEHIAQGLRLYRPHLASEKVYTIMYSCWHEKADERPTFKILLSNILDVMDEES

EGFR, sequence (P00533 25-1210): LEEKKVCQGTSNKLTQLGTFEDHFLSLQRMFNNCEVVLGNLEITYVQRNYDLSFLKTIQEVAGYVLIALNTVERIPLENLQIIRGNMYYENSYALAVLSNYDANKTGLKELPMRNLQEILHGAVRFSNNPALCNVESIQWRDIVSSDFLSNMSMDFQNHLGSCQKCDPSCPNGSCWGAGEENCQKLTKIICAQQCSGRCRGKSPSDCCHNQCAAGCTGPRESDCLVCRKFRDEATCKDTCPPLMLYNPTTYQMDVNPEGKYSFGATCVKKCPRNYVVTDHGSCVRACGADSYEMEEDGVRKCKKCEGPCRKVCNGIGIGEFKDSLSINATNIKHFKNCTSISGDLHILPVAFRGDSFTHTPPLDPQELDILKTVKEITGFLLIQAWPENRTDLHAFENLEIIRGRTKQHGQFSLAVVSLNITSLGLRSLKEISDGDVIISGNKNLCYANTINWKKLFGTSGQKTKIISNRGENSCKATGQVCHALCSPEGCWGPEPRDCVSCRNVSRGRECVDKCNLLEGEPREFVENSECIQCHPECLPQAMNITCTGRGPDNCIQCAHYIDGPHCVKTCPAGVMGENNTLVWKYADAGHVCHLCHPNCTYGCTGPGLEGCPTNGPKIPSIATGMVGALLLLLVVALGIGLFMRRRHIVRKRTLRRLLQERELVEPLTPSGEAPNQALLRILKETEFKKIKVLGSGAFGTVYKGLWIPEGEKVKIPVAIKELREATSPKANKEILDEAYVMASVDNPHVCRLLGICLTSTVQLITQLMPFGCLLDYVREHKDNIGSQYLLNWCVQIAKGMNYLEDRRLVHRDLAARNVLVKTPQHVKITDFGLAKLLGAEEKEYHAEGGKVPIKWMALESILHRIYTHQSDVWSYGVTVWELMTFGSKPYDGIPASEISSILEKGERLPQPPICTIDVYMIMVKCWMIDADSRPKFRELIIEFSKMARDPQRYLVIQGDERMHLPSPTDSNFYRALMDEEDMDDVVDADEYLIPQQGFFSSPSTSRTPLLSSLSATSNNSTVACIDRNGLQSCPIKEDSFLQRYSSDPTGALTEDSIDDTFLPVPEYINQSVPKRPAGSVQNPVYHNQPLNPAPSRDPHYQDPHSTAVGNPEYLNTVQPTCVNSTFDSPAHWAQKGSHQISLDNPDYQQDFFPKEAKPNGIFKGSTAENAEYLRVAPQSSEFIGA
SRC, sequence (P12931 whole entry): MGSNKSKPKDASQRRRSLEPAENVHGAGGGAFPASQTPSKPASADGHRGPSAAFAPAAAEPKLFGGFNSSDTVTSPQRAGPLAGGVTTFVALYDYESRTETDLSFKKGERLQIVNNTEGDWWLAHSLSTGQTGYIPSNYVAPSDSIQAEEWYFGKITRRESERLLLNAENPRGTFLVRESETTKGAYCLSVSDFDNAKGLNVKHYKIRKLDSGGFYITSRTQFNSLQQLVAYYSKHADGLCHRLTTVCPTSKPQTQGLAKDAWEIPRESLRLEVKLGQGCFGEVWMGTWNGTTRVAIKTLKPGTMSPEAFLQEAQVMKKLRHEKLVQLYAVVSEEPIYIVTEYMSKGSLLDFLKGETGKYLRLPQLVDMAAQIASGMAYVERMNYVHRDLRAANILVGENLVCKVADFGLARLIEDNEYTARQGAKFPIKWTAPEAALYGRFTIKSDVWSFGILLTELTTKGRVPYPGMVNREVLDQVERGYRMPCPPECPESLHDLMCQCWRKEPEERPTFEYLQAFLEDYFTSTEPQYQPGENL
LCK, sequence (P06239 whole entry): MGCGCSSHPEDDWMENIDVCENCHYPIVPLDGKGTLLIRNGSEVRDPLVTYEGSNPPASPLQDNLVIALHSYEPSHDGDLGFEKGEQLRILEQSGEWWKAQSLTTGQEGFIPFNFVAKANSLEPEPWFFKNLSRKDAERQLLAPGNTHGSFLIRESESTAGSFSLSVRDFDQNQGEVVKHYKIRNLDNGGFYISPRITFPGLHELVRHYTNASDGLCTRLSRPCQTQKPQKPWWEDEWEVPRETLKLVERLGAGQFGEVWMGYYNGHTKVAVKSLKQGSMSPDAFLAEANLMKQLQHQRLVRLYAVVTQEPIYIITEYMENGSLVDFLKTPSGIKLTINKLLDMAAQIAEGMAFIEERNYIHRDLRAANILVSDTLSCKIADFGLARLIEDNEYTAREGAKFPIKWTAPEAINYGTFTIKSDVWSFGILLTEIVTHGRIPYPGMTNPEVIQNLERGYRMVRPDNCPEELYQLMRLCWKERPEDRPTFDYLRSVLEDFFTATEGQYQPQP

Structure (SMILES)	IC50 (SRC) [nM]	IC50 (TEC) [nM]	IC50 (LCK) [nM]	IC50 (EGFR) [nM]	IC50 (ITK) [nM]	IC50 (BTK-WT) [nM]
C[C@@H]1[C@H](NC(=O)c2ccc3c(c2)C(C)(C)OC3)CCCN1c1cnc(C(N)=O)c(Nc2cnn(C)c2)n1 [Example E-153, 5-((2R,3R)-3-(3,3-dimethyl-1,3-dihydroisobenzofuran-5-carboxamido)-2-methylpiperidin-1-yl)-3-((1-methyl-1H-pyrazol-4-yl)amino)pyrazine-2-carboxamide]	10 to 100	≤ 10	10 to 100	1000 to 10000	100 to 1000	≤ 10
C[C@@H]1[C@H](NC(=O)c2ccc(-c3ncco3)cc2)CCCN1c1cnc(C(N)=O)c(Nc2cnn(C)c2)n1 [Example E-154, 3-((1-methyl-1H-pyrazol-4-yl)amino)-5-((2R,3R)-2-methyl-3-(4-(oxazol-2-yl)benzamido)piperidin-1-yl)pyrazine-2-carboxamide]	10 to 100	≤ 10	10 to 100	1000 to 10000	100 to 1000	≤ 10
Cc1nc(-c2ccc(C(=O)N[C@@H]3CCCN(c4cnc(C(N)=O)c(Nc5cnn(C)c5)n4)[C@@H]3C)cc2)cs1 [Example E-155, 3-((1-methyl-1H-pyrazol-4-yl)amino)-5-((2R,3R)-2-methyl-3-(4-(2-methylthiazol-4-yl)benzamido)piperidin-1-yl)pyrazine-2-carboxamide]	10 to 100	≤ 10	10 to 100	100 to 1000	100 to 1000	≤ 10
